Measurements reported in the supplement of paper PMC12463676, “Small-molecule dissolution of stress granules by redox modulation benefits ALS models” (Nature Chemical Biology, 2025).

Assays:
lipoamide = compound: NC(=O)CCCCC1CCSS1 [lipoamide]; experiment: thermal stability z-score vs DMSO; higher = more thermally stabilized by treatment; details: HeLa, lipoamide concentration 100 µM
Experimental: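 Cellular thermal proteome profiling in HeLa cells. Cells were treated with 100 µM lipoamide for 1 h, with or without 1 mM arsenate for a further 1 h, then heated to ten temperatures (37-66.3 °C), and soluble protein was quantified by TMT mass spectrometry relative to 0.1% DMSO controls. The thermal stability score (sum of log2 fold changes minus the abundance score) was transformed to a z-score; mean of n = 3 experiments.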

potassium arsenate = compound: O=[As]([O-])(O)O.[K+] [potassium arsenate]; experiment: as above; details: HeLa; arsenate concentration 1 mM
Experimental: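 Cellular thermal proteome profiling in HeLa cells treated with 1 mM arsenate for 1 h (DMSO pretreatment), heated to ten temperatures (37-66.3 °C). Soluble protein was quantified by TMT mass spectrometry relative to DMSO controls; the thermal stability score was transformed to a z-score; mean of n = 3 experiments.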

[1] = arsenate co-treatment: 1 mM arsenate 1 h
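Note: each temperature applied for 3 min, abundance score taken as mean log2 fold change at the two lowest temperatures, z-score obtained by mean subtraction and division by SD.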

UniProt Q53T59, sequence (Q53T59 whole entry): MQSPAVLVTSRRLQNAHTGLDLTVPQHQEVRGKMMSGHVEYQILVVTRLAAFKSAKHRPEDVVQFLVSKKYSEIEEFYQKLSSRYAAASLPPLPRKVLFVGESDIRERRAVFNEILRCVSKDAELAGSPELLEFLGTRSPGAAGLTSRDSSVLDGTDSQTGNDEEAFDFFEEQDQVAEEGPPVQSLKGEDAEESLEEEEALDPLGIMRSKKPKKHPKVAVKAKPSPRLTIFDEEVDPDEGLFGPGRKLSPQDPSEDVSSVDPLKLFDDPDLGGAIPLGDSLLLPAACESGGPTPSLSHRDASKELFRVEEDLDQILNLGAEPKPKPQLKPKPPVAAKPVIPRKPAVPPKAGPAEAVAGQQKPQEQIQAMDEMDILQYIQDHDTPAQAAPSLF
UniProt P05362, sequence (P05362 whole entry): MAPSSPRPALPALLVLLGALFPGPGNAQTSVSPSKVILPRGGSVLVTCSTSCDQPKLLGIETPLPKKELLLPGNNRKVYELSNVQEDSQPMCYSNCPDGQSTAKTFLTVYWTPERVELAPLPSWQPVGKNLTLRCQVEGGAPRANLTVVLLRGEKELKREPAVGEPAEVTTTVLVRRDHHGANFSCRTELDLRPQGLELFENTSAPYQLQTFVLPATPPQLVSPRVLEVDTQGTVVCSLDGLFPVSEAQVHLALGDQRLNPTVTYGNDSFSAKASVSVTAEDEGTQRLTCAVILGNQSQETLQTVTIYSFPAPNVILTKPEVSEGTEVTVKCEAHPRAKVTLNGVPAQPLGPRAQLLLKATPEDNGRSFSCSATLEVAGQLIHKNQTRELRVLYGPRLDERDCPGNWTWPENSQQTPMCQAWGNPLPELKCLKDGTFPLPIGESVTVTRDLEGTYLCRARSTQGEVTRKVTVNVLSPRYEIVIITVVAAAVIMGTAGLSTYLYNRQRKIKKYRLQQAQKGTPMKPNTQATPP
UniProt P04792, sequence (P04792 whole entry): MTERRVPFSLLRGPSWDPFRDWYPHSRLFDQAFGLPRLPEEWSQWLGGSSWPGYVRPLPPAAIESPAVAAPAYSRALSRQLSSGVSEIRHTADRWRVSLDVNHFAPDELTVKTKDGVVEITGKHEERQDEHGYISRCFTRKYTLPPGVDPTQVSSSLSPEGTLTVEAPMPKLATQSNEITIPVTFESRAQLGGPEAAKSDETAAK
UniProt O43719, sequence (O43719 whole entry): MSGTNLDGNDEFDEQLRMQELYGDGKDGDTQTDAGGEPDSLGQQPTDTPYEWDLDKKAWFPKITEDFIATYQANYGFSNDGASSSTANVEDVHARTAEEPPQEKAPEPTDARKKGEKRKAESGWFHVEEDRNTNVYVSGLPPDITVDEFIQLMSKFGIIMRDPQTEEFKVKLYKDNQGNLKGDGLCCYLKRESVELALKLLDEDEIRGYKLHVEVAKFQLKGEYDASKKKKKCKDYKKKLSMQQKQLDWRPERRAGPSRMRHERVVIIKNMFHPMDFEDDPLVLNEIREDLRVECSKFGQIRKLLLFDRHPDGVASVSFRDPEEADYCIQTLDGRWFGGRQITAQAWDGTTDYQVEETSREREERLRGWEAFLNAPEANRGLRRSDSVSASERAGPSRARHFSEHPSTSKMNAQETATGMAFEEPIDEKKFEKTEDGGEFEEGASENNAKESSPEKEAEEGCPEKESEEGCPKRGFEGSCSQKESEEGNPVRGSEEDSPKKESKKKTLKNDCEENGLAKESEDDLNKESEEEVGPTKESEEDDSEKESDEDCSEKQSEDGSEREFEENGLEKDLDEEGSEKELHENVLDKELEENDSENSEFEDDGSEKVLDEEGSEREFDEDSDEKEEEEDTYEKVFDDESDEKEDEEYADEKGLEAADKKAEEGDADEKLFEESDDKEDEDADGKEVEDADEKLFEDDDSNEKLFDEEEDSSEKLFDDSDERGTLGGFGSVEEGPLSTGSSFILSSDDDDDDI
UniProt P41252, sequence (P41252 whole entry): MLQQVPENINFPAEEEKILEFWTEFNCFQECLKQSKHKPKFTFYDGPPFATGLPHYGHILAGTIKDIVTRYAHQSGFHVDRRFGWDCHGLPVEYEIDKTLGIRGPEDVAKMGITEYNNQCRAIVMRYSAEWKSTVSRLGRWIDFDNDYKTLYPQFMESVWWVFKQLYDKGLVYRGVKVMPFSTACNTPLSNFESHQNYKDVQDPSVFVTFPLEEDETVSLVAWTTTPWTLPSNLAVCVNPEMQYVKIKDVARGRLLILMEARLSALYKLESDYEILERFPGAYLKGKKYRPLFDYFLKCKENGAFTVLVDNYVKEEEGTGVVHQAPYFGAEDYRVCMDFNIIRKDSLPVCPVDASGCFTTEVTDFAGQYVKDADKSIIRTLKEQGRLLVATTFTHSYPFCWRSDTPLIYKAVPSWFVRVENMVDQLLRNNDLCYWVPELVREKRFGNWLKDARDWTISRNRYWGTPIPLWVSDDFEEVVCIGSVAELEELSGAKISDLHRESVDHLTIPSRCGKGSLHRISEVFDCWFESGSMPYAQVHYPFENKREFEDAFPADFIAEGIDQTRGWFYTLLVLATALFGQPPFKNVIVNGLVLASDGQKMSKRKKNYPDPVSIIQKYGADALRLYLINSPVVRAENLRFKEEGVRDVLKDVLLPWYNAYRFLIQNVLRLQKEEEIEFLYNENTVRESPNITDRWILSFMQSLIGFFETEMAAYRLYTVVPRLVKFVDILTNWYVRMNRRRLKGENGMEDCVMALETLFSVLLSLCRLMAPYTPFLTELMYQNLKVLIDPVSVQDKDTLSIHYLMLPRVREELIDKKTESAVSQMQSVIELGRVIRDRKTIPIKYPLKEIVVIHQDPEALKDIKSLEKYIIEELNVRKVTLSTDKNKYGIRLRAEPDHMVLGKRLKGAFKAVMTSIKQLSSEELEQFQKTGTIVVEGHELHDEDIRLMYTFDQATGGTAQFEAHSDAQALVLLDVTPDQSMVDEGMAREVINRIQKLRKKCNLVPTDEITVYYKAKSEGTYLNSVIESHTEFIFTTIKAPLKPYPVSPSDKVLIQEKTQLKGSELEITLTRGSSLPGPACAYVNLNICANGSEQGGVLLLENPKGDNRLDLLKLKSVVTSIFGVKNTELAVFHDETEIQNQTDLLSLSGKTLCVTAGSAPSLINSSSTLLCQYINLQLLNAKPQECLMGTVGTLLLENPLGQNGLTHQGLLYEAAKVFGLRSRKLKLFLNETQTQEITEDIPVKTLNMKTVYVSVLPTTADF
UniProt Q3SXM5, sequence (Q3SXM5 whole entry): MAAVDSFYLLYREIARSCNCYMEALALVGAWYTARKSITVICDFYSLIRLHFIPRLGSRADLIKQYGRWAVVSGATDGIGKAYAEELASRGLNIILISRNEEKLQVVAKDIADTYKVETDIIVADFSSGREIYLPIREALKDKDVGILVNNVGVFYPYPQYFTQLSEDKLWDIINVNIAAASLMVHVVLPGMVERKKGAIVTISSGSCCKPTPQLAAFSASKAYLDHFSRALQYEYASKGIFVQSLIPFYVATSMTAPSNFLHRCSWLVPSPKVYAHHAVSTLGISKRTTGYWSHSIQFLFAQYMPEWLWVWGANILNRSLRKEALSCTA
UniProt P34932, sequence (P34932 whole entry): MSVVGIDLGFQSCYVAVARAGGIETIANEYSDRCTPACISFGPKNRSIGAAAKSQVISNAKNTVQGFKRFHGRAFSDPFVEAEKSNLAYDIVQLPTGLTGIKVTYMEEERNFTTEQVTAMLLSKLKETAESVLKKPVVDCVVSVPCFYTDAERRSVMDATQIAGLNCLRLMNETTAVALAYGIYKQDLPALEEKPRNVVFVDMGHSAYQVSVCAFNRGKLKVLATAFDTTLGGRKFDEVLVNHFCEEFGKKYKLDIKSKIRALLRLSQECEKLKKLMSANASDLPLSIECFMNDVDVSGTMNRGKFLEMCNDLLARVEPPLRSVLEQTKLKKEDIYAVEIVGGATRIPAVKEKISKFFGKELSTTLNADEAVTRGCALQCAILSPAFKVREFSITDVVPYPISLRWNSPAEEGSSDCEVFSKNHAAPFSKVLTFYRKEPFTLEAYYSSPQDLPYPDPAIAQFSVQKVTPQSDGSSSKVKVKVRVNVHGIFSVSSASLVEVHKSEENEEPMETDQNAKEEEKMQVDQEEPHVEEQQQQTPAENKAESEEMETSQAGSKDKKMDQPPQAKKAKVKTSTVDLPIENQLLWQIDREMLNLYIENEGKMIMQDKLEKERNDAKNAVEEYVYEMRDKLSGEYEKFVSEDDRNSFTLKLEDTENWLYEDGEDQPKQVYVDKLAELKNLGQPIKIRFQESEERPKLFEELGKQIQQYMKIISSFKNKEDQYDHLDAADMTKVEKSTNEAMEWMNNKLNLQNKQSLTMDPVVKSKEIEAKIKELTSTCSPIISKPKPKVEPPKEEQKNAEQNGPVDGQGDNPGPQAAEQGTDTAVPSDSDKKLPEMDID
UniProt Q8NBQ5, sequence (Q8NBQ5 whole entry): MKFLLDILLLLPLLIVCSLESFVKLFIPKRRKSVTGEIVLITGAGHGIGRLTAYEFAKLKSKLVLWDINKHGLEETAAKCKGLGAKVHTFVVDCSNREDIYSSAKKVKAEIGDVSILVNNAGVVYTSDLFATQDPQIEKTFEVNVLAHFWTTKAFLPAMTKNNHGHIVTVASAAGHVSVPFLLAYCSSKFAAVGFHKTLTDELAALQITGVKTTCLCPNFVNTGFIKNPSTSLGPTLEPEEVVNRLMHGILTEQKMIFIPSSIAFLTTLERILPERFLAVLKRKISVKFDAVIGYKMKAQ
UniProt P56937, sequence (P56937 whole entry): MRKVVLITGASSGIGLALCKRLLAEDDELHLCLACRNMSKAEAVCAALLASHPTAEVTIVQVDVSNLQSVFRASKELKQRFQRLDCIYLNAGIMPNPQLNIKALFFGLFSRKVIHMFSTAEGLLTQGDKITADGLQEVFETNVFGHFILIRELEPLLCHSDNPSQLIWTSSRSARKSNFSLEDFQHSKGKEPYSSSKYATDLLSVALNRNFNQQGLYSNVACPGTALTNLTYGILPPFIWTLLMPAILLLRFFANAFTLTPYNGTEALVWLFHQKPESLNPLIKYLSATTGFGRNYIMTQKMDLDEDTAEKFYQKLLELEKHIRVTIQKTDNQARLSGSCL

Target	thermal stability z-score (lipoamide; [1])	thermal stability z-score (lipoamide; arsenate co-treatment: none)	thermal stability z-score (potassium arsenate)
HPS6 (UniProt Q86YV9)	0.00908	0.132	-0.0451
HRSP12 (UniProt P52758)	0.703	0.341	0.206
HS1BP3 (UniProt Q53T59)	-0.135	0.097	-0.105
HS2ST1 (UniProt Q7LGA3)	0.123	-0.171	0.457
HSCB (UniProt Q8IWL3)	0.0143	0.667	0.175
HSD17B4 (UniProt P51659)	0.258	0.497	0.201
HSD17B7 (UniProt P56937)	0.202	0.543	1.82
HSD17B8 (UniProt Q92506)	0.281	0.0946	-0.785
HSD17B10 (UniProt Q99714)	0.921	0.151	-1.29
HSD17B11 (UniProt Q8NBQ5)	0.563	0.342	0.265
HSD17B12 (UniProt Q53GQ0)	0.28	0.0767	0.614
HSDL1 (UniProt Q3SXM5)	-0.0659	-0.0958	-1.43
HSDL2 (UniProt Q6YN16)	0.183	0.156	0.41
HSF1 (UniProt Q00613)	-0.332	-0.199	-0.185
HSP90AA1 (UniProt P07900)	0.0337	0.301	0.428
HSP90AA4P (UniProt Q58FG1)	-1.84	-1.53	-2.39
HSP90AB1 (UniProt P08238)	-0.421	-0.166	0.108
HSP90AB4P (UniProt Q58FF6)	0.361	-0.21	-0.635
HSP90B1 (UniProt P14625)	-3.56	-2.61	0.54
HSPA1B|HSPA1A	-0.148	0.0496	-0.064
HSPA2 (UniProt P54652)	-0.295	0.552	0.26
HSPA4 (UniProt P34932)	0.102	0.475	-0.388
HSPA4L (UniProt O95757)	0.0785	-0.0888	0.388
HSPA5 (UniProt P11021)	-2.56	-1.9	0.434
HSPA8 (UniProt P11142)	-0.0626	0.357	-0.107
HSPA9 (UniProt P38646)	-1.1	-0.531	-1.36
HSPA12A (UniProt O43301)	-0.677	-0.446	-0.84
HSPA13 (UniProt P48723)	-2.72	-2.35	-0.112

Target	thermal stability z-score (lipoamide; [1])	thermal stability z-score (lipoamide; arsenate co-treatment: none)	thermal stability z-score (potassium arsenate)
HSPA14 (UniProt Q0VDF9)	-0.553	-0.226	0.837
HSPB1 (UniProt P04792)	-1.04	-0.459	0.246
HSPB8 (UniProt Q9UJY1)	-0.255	0.0407	-0.597
HSPB11 (UniProt Q9Y547)	-0.309	0.124	-0.48
HSPBP1 (UniProt Q9NZL4)	-0.134	-0.197	0.872
HSPD1 (UniProt P10809)	-0.0897	0.0259	-0.432
HSPE1 (UniProt P61604)	1.5	0.918	0.112
HSPG2 (UniProt P98160)	0.252	0.126	2.43
HSPH1 (UniProt Q92598)	-0.0648	-0.0435	0.196
HTATIP2 (UniProt Q9BUP3)	-0.914	-0.584	0.453
HTATSF1 (UniProt O43719)	0.386	0.479	-0.763
HTRA2 (UniProt O43464)	-0.984	-0.617	-0.816
HTT (UniProt P42858)	0.301	-0.0612	0.319
HUS1 (UniProt O60921)	-0.436	-0.56	-0.902
HUWE1 (UniProt Q7Z6Z7)	-0.216	0.0195	0.187
HYI (UniProt Q5T013)	1.85	0.651	0.524
HYOU1 (UniProt Q9Y4L1)	-4.47	-3.4	0.592
HYPK (UniProt Q9NX55)	0.716	0.592	-0.114
IAH1 (UniProt Q2TAA2)	0.672	0.79	-0.173
IARS2 (UniProt Q9NSE4)	-0.232	0.259	-0.455
IARS (UniProt P41252)	-0.197	-0.0191	0.763
IBA57 (UniProt Q5T440)	-0.0611	0.155	-0.431
IBTK (UniProt Q9P2D0)	-0.734	-0.319	-0.576
ICAM1 (UniProt P05362)	0.33	-0.273	-0.49
ICOSLG (UniProt O75144)	-0.136	-0.0493	-0.984
ICT1 (UniProt Q14197)	-0.321	-0.282	-0.225
ID1 (UniProt P41134)	0.197	0.0434	-0.00372
